Test results: the supplement of paper PMC10307832

compound: COc1cccc2c1C(=O)c1c(O)c3c(c(O)c1C2=O)C[C@@](O)(C(=O)CO)C[C@@H]3O[C@H]1C[C@H](N)[C@H](O)[C@H](C)O1 [Doxorubicin] + Nc1ncn([C@H]2C[C@H](O)[C@@H](CO)O2)c(=O)n1 [Decitabine] (partner 2 µM); assay: relative viability (nuclei count vs DMSO), 5 days (fraction); higher = more cells survive; details: first compound 0.001 µM
Outline: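 Lung cancer cell lines were pin-tool dosed in 1536-well plates on the day after seeding, with either a lone drug or a fixed anchor-drug dose plus five library-drug doses (not always all listed) in √10 steps. Nuclei were counted on 4× images after 5 days. Relative viability is the ratio of treated-well to vehicle-well nuclei counts, with each value a median of duplicate plates.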

Compared with NCI-H358, NCI-H322M is higher in relative viability: 0.206 for the first, 0.757 for the second.

Compared with HCC-78, LXF-289 is lower in relative viability: 0.749 for the first, 0.41 for the second.

Going from BEN to HARA, the relative viability rises from 0.757 to 0.796.

First: HCC-827
Second: A-427
The relative viability of the first is lower: 0.339 for the first, 0.585 for the second.

First: NCI-H647
Second: PC-3 [JPC-3]
The relative viability of the first is lower: 0.39 for the first, 0.765 for the second.

Going from NCI-H1755 to NCI-H650, the relative viability falls from 0.774 to 0.287.

Going from NCI-H3122 to NCI-H441, the relative viability rises from 0.391 to 0.597.

Compared with NCI-H1395, 201T is higher in relative viability: 0.724 for the first, 0.899 for the second.

First: NCI-H1975
Second: HOP-62
The relative viability of the first is higher: 0.391 for the first, 0.217 for the second.

Going from NCI-H2405 to NCI-H1355, the relative viability falls from 0.711 to 0.379.

First: NCI-H838
Second: NCI-H1666
The relative viability of the first is lower: 0.485 for the first, 0.671 for the second.

Going from EPLC-272H to NCI-H2347, the relative viability rises from 0.382 to 0.612.

Going from NCI-H1915 to NCI-H1437, the relative viability rises from 0.265 to 0.538.

First: NCI-H460
Second: NCI-H1792
The relative viability of the first is lower: 0.445 for the first, 0.622 for the second.

Going from NCI-H2085 to HCC-15, the relative viability rises from 0.536 to 0.628.

same assay, conditions: first compound 0.003162 µM

Going from NCI-H358 to NCI-H322M, the relative viability rises from 0.17 to 0.58.

First: HCC-78
Second: LXF-289
The relative viability of the first is higher: 0.697 for the first, 0.413 for the second.

Going from BEN to HARA, the relative viability falls from 0.714 to 0.425.

Going from HCC-827 to LOU-NH91, the relative viability rises from 0.328 to 0.816.

Going from A-427 to NCI-H647, the relative viability falls from 0.625 to 0.387.

Compared with PC-3 [JPC-3], NCI-H1755 is lower in relative viability: 0.803 for the first, 0.763 for the second.

First: NCI-H650
Second: NCI-H3122
The relative viability of the first is lower: 0.336 for the first, 0.514 for the second.

Compared with NCI-H441, NCI-H1395 is higher in relative viability: 0.241 for the first, 0.666 for the second.

First: 201T
Second: NCI-H1975
The relative viability of the first is higher: 0.879 for the first, 0.393 for the second.

Compared with HOP-62, NCI-H2405 is higher in relative viability: 0.249 for the first, 0.759 for the second.

First: NCI-H1355
Second: NCI-H838
The relative viability of the first is lower: 0.424 for the first, 0.47 for the second.

Compared with NCI-H1666, EPLC-272H is lower in relative viability: 0.759 for the first, 0.324 for the second.

Going from NCI-H2347 to NCI-H1915, the relative viability falls from 0.71 to 0.263.

Compared with NCI-H1437, NCI-H460 is lower in relative viability: 0.616 for the first, 0.375 for the second.

Going from NCI-H1792 to NCI-H2085, the relative viability falls from 0.677 to 0.5.

Cell Line HCC-15 has a relative viability of 0.704.

same assay, conditions: first compound 0.01 µM

Going from NCI-H358 to NCI-H322M, the relative viability rises from 0.154 to 0.735.

First: HCC-78
Second: LXF-289
The relative viability of the first is higher: 0.717 for the first, 0.395 for the second.

Compared with BEN, HARA is lower in relative viability: 0.712 for the first, 0.519 for the second.

First: HCC-827
Second: LOU-NH91
The relative viability of the first is lower: 0.333 for the first, 0.837 for the second.

Compared with A-427, NCI-H647 is lower in relative viability: 0.553 for the first, 0.342 for the second.

Going from PC-3 [JPC-3] to NCI-H1755, the relative viability falls from 0.907 to 0.736.

Going from NCI-H650 to NCI-H3122, the relative viability rises from 0.283 to 0.389.

Going from NCI-H441 to NCI-H1395, the relative viability rises from 0.243 to 0.634.

Going from 201T to NCI-H1975, the relative viability falls from 0.824 to 0.392.

Compared with HOP-62, NCI-H2405 is higher in relative viability: 0.187 for the first, 0.774 for the second.

First: NCI-H1355
Second: NCI-H838
The relative viability of the first is lower: 0.383 for the first, 0.385 for the second.

Going from NCI-H1666 to EPLC-272H, the relative viability falls from 0.662 to 0.32.

Compared with NCI-H2347, NCI-H1915 is lower in relative viability: 0.646 for the first, 0.283 for the second.

Compared with NCI-H1437, NCI-H460 is lower in relative viability: 0.501 for the first, 0.282 for the second.

Going from NCI-H1792 to NCI-H2085, the relative viability falls from 0.57 to 0.522.

Cell Line HCC-15 has a relative viability of 0.571.

same assay, conditions: first compound 0.03162 µM

Compared with NCI-H358, NCI-H322M is higher in relative viability: 0.12 for the first, 0.688 for the second.

First: HCC-78
Second: LXF-289
The relative viability of the first is higher: 0.668 for the first, 0.317 for the second.

First: BEN
Second: HARA
The relative viability of the first is higher: 0.62 for the first, 0.507 for the second.

First: HCC-827
Second: LOU-NH91
The relative viability of the first is lower: 0.264 for the first, 0.758 for the second.

Compared with A-427, NCI-H647 is lower in relative viability: 0.456 for the first, 0.206 for the second.

First: PC-3 [JPC-3]
Second: NCI-H1755
The relative viability of the first is higher: 0.829 for the first, 0.714 for the second.

First: NCI-H650
Second: NCI-H3122
The relative viability of the first is lower: 0.265 for the first, 0.384 for the second.

First: NCI-H441
Second: NCI-H1395
The relative viability of the first is lower: 0.157 for the first, 0.614 for the second.

Going from 201T to NCI-H1975, the relative viability falls from 0.835 to 0.317.

Compared with HOP-62, NCI-H2405 is higher in relative viability: 0.228 for the first, 0.579 for the second.

Compared with NCI-H1355, NCI-H838 is lower in relative viability: 0.382 for the first, 0.328 for the second.

Compared with NCI-H1666, EPLC-272H is lower in relative viability: 0.692 for the first, 0.387 for the second.

First: NCI-H2347
Second: NCI-H1915
The relative viability of the first is higher: 0.539 for the first, 0.259 for the second.

Going from NCI-H1437 to NCI-H460, the relative viability falls from 0.417 to 0.0686.

Going from NCI-H1792 to NCI-H2085, the relative viability rises from 0.485 to 0.521.

HCC-15 gave a relative viability of 0.408.

same assay, conditions: first compound 0.1 µM

Compared with NCI-H358, NCI-H322M is higher in relative viability: 0.0966 for the first, 0.553 for the second.

Going from HCC-78 to LXF-289, the relative viability falls from 0.533 to 0.392.

Compared with BEN, HARA is lower in relative viability: 0.607 for the first, 0.407 for the second.

Going from HCC-827 to LOU-NH91, the relative viability rises from 0.262 to 0.693.

Going from A-427 to NCI-H647, the relative viability falls from 0.4 to 0.183.

Going from PC-3 [JPC-3] to NCI-H1755, the relative viability rises from 0.732 to 0.743.

First: NCI-H650
Second: NCI-H3122
The relative viability of the first is lower: 0.304 for the first, 0.437 for the second.

Compared with NCI-H441, NCI-H1395 is higher in relative viability: 0.183 for the first, 0.651 for the second.

First: 201T
Second: NCI-H1975
The relative viability of the first is higher: 0.804 for the first, 0.322 for the second.

Compared with HOP-62, NCI-H2405 is higher in relative viability: 0.206 for the first, 0.497 for the second.

First: NCI-H1355
Second: NCI-H838
The relative viability of the first is higher: 0.349 for the first, 0.292 for the second.

Compared with NCI-H1666, EPLC-272H is lower in relative viability: 0.697 for the first, 0.423 for the second.

First: NCI-H2347
Second: NCI-H1915
The relative viability of the first is higher: 0.557 for the first, 0.271 for the second.

First: NCI-H1437
Second: NCI-H460
The relative viability of the first is higher: 0.361 for the first, 0.0323 for the second.

First: NCI-H1792
Second: NCI-H2085
The relative viability of the first is lower: 0.525 for the first, 0.553 for the second.

In the case of HCC-15, the relative viability is reported as 0.211.
